Ends that are not written are not given here.
Experiments:
[1] = test system: Sprague Dawley rats, IR MI; experiment: Efficacy on LV function by MRI; format: in vivo, rat; settings: tail-vein injection 1-day post-MI, MRI 3 days and 5 weeks post-injection
Procedure: Methods 5.1: Assessing Efficacy of L-PLPMMPi on LV Function. Male and female Sprague Dawley rats undergo IR procedures as previously described in Example 2. Prior to surgery, all animals undergo magnetic resonance imaging (MRI) to establish a baseline for LV ejection fraction (EF), wall thickness, end diastolic volume (EDV), and end systolic volume (ESV). […] MRI is performed at 3 days and 5 weeks (n=7 per sex for saline, MMPi, L-PLP, and L-PLPMMPi treated animals with randomized groups for each harvest timepoint) post-injection to assess cardiac function via LV EF, wall thickness, EDV, and ESV. For power analysis, an a value of 0.05 and a power of 0.8 was used to determine experimental sample sizes with additional rats based on an expected 30% mortality from surgical procedures. A 2-way ANOVA with post-hoc Tukey Test is then performed with significance at α=0.05.

[2] = Diffusion Ordered Spectroscopy (DOSY) NMR diffusion rate; format: physicochemical; settings: in deuterated water
Procedure: ^1H Nuclear Magnetic Resonance (^1H NMR): ^1H NMR data was recorded on either a Bruker Avance III HD 500 MHz spectrometer, a Bruker Avance III 600 MHz spectrometer, or a Bruker Neo 600 MHz spectrometer. The 500 MHz spectrometer was primarily used for small molecule characterization, the Bruker Avance III 600 MHz spectrometer was used for polymerization kinetics studies, and the Bruker Neo 600 MHz spectrometer was used for diffusion ordered spectroscopy (DOSY) studies done on PLPs in deuterated buffered saline. ^1H NMR chemical shifts are given in reference to residual proton peaks from either the DMSO-d6 or the DMF-d7 solvent.
(§1) Characterization Results: The molar mass of both unlabeled and labeled AAK20 PLPs were analyzed by SDS PAGE using a polyacrylamide gel with a pore gradient of 4-15% (cat #: 4561083) and Precision Plus Kaleidoscope Protein Standard (cat #: 1610395). The mass of both AAK20 and Cy5.5-AAK20 samples were ˜20 kDa and found to correspond with the average molecular weight of an AAK PLP with a DP of 20 (FIG. 9A). […] The diffusion rate of AAK20 in deuterated water was analyzed by Diffusion Ordered Spectroscopy (DOSY) NMR. […] Additional physical characterization of AAK20 by dry state Transmission Electron Microscopy (TEM) was performed to provide complementary data to SDS PAGE, DLS, and DOSY NMR.

[3] = Dry state Transmission Electron Microscopy (TEM); format: physicochemical
Procedure: as §1

[4] = Dynamic Light Scattering (DLS) average diameter; format: physicochemical; settings: in PBS
Procedure: as §1

Compound | LV ejection fraction (EF), pre- vs post-MI (MRI) [1] | end diastolic volume (EDV), pre- vs post-MI (MRI) [1] | end systolic volume (ESV), pre- vs post-MI (MRI) [1] | wall thickness, pre- vs post-MI (MRI) [1] | diffusion rate by DOSY NMR [2] | morphology by dry state TEM [3] | average diameter by DLS [4]
CC(C)[C@H](NS(=O)(=O)c1ccc(-c2ccc(Br)cc2)cc1)C(=O)O [MMPi, PD166793] | decreased | increased | increased | negligible differences |  |  | 
AAK20: PLP made by ROMP of norbornene AAK monomer (SEQ ID NO: 142, AAKAAKAA) at 20 molar equivalence to Grubbs catalyst; unlabeled (AAKAAKAA-NH2; also: norbornene monomer polymerized by ROMP into PLP) |  |  |  |  | approximately 1×10^−6 cm^2/s | nanoscale globular assemblies | < 10 nm
